Data: patent US8946166B2, “Peptide-based compounds and compositions which inhibit muscle contraction” (Lipotec, S.A., priority 2009, dated 2015)

These substances were tested on AChR clusters (assay: AChR clustering inhibition trial (agrin-induced AChR clusters in myotubes, α-bungarotoxin-tetramethylrhodamine staining, confocal quantification)). Settings: peptide 10 μM; mouse myotubes; normalized to basal values of the medium.
Assay type: cell-based
With “Ac-L-Asp-L-Asp-L-Tyr-L-Phe-L-Arg-L-Leu-NH2” the “Percentage of AChR cluster inhibition” value was 33.8%.
“Ac-L-Asp-L-Asp-L-Tyr-L-Tyr-L-Arg-L-Met-NH2” was tested, and the “Percentage of AChR cluster inhibition” value was 31.3%.
“Ac-L-Asp-L-Asp-L-Tyr-L-Tyr-L-Lys-L-Met-NH2” was tested, and the “Percentage of AChR cluster inhibition” value was 21.5%.
For “Ac-L-Glu-L-Asp-L-Arg-L-Phe-L-Arg-L-Leu-NH2”, the “Percentage of AChR cluster inhibition” value was 20.8%.
In the case of “Ac-L-Glu-L-Asp-L-Arg-L-Phe-L-Lys-L-Leu-NH2”, the “Percentage of AChR cluster inhibition” value is reported as 23.7%.
For “Ac-L-Glu-L-Asp-L-Tyr-L-Phe-L-Arg-L-Leu-NH2”, the “Percentage of AChR cluster inhibition” value was 30.8%.
For “Ac-L-Glu-L-Asp-L-Tyr-L-Tyr-L-Arg-L-Leu-NH2”, the “Percentage of AChR cluster inhibition” value was 57.1%.
With “Ac-L-Pro-L-Asp-L-Arg-L-Phe-L-Lys-L-Leu-NH2” the “Percentage of AChR cluster inhibition” value was 46.1%.
In the case of “Ac-L-Pro-L-Asp-L-Tyr-L-Phe-L-Lys-L-Leu-NH2”, the “Percentage of AChR cluster inhibition” value is reported as 27.8%.
With “Ac-L-Pro-L-Asp-L-Tyr-L-Tyr-L-Arg-L-Leu-NH2” the “Percentage of AChR cluster inhibition” value was 51.9%.
For “Ac-L-Pro-L-Asp-L-Tyr-L-Tyr-L-Arg-L-Met-NH2”, the “Percentage of AChR cluster inhibition” value was 61.1%.
For “Ac-L-Pro-L-Asp-L-Tyr-L-Tyr-L-Lys-L-Met-NH2”, the “Percentage of AChR cluster inhibition” value was 40.7%.
“H-L-Glu-L-Asp-L-Arg-L-Phe-L-Arg-L-Met-NH2” was tested, and the “Percentage of AChR cluster inhibition” value was 25.6%.
For “Palm-L-Glu-L-Asp-L-Tyr-L-Tyr-L-Arg-L-Leu-NH2”, the “Percentage of AChR cluster inhibition” value was 34.8%.
“Palm-L-Pro-L-Asp-L-Tyr-L-Tyr-L-Lys-L-Leu-NH2” was tested, and the “Percentage of AChR cluster inhibition” value was 33.7%.

Same assay, conditions: peptide 100 μM; mouse myotubes; normalized to basal values of the medium
In the case of “Ac-L-Glu-L-Asp-L-Arg-L-Phe-L-Arg-L-Met-NH2”, the “Percentage of AChR cluster inhibition” value is reported as 55.1%.
In the case of “Ac-L-Glu-L-Asp-L-Arg-L-Phe-L-Arg-L-Met-OH”, the “Percentage of AChR cluster inhibition” value is reported as 39.1%.
In the case of “Ac-L-Glu-L-Asp-L-Arg-L-Tyr-L-Arg-L-Leu-NH2”, the “Percentage of AChR cluster inhibition” value is reported as 24.5%.
With “Ac-L-Glu-L-Asp-L-Tyr-L-Phe-L-Arg-L-Leu-OH” the “Percentage of AChR cluster inhibition” value was 33.8%.
For “Ac-L-Pro-L-Asp-L-Arg-L-Tyr-L-Arg-L-Leu-NH2”, the “Percentage of AChR cluster inhibition” value was 40.2%.
“Ac-L-Pro-L-Asp-L-Arg-L-Tyr-L-Lys-L-Leu-NH2” was tested, and the “Percentage of AChR cluster inhibition” value was 43.6%.
In the case of “Ac-L-Pro-L-Asp-L-Tyr-L-Phe-L-Arg-L-Leu-NH—(CH2)15—CH3”, the “Percentage of AChR cluster inhibition” value is reported as 27.8%.
“Ac-L-Pro-L-Asp-L-Tyr-L-Tyr-L-Lys-L-Leu-NH2” was tested, and the “Percentage of AChR cluster inhibition” value was 36.7%.
For “Palm-L-Glu-L-Asp-L-Tyr-L-Tyr-L-Arg-L-Met-NH2”, the “Percentage of AChR cluster inhibition” value was 68.5%.
